Laboratory results published in patent US20230066474A1, “LYSOSOME-TARGETING ANTIBODY-DRUG CONJUGATE AND USE THEREOF” (Sun Yat-Sen University, priority 2019, published 2023).
Where a SMILES comes first, the peptide text is derived from it. [ ]: non-standard residue; d: D form. Dolaproine = CO[C@@H]([C@@H]1CCCN1)[C@@H](C)C(=O)O; Dil = CC[C@H](C)[C@H](NC)[C@@H](CC(=O)O)OC; NMeV = CN[C@H](C(=O)O)C(C)C

System: A431 cells
Assay: 2D tumor cell model cytotoxicity, Cell Counting Kit-8 (CCK-8)
Format: cell-based, human
Conditions: treated 96 h, CCK-8 viability, mean±SEM (n=3)
Method: 2D tumor cell model was used, where ADCs of varying concentrations were added to a 96-well plate seeded with A431 cells and treated for 96 h. The cell viability was examined using Cell Counting Kit-8 (CCK-8).

CC[C@H](C)[C@@H]([C@@H](CC(=O)N1CCC[C@H]1[C@H](OC)[C@@H](C)C(=O)N[C@@H](Cc1ccccc1)C(=O)O)OC)N(C)C(=O)[C@@H](NC(=O)[C@@H](NC)C(C)C)C(C)C [MMAF, monomethylaurethatin F] (H-[NMeV]V[Dil][Dolaproine]F-OH)
EC50: 955 ± 289 nM
